Experimental data: PubChem BioAssay AID2060511 (Molecular Pharmacology Branch, DTP, NCI, 2025)
pIC50: −log10 of the molar value.

System: 422866-222-R5-J1-PDC spheroids with HUVEC/MSC, viability
Assay: Anticancer human tumor 422866-222-R5-J1-PDC patient-derived pancreatic adenocarcinoma cell line growth inhibition [GQUAD]
Conditions: for pIC50: curve of first compound; for viability, T/C: stronger effect = lower value; active = viability on the fitted dose curve at most 10% of control; inactive = the rest
In short: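 Viability of tumor cells grown as complex spheroids with endothelial and stromal cells, exposed to drug combinations. Top concentration at or near clinical Cmax (else 10 microM), diluted in half-log increments.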

[1] = second compound 0.0316 µM, first compound 0.0316 µM
[2] = second compound 0.0316 µM, first compound 0.1 µM
[3] = second compound 0.0316 µM, first compound 0.316 µM
[4] = second compound 0.0316 µM, first compound 1 µM
[5] = second compound 0.0316 µM, first compound 3.16 µM
[6] = second compound 0.0316 µM, first compound 10 µM
[7] = second compound 0.1 µM, first compound 0.0316 µM
[8] = second compound 0.1 µM, first compound 0.1 µM
[9] = second compound 0.1 µM, first compound 0.316 µM
[10] = second compound 0.1 µM, first compound 1 µM
[11] = second compound 0.1 µM, first compound 3.16 µM
[12] = second compound 0.1 µM, first compound 10 µM
[13] = second compound 0.316 µM, first compound 0.0316 µM
[14] = second compound 0.316 µM, first compound 0.1 µM
[15] = second compound 0.316 µM, first compound 0.316 µM
[16] = second compound 0.316 µM, first compound 1 µM
[17] = second compound 0.316 µM, first compound 3.16 µM
[18] = second compound 0.316 µM, first compound 10 µM
[19] = second compound 1 µM, first compound 0.0316 µM
[20] = second compound 1 µM, first compound 0.1 µM
[21] = second compound 1 µM, first compound 0.316 µM
[22] = second compound 1 µM, first compound 1 µM
[23] = second compound 1 µM, first compound 3.16 µM
[24] = second compound 1 µM, first compound 10 µM
[25] = second compound 3.16 µM, first compound 0.0316 µM
[26] = second compound 3.16 µM, first compound 0.1 µM
[27] = second compound 3.16 µM, first compound 0.316 µM
[28] = second compound 3.16 µM, first compound 1 µM
[29] = second compound 3.16 µM, first compound 3.16 µM
[30] = second compound 3.16 µM, first compound 10 µM
[31] = second compound 10 µM, first compound 0.0316 µM
[32] = second compound 10 µM, first compound 0.1 µM
[33] = second compound 10 µM, first compound 0.316 µM
[34] = second compound 10 µM, first compound 1 µM
[35] = second compound 10 µM, first compound 3.16 µM
[36] = second compound 10 µM, first compound 10 µM
[37] = second compound 0.0316 µM, first compound 0.000999 µM
[38] = second compound 0.0316 µM, first compound 0.00316 µM
[39] = second compound 0.0316 µM, first compound 0.00999 µM
[40] = second compound 0.0316 µM, first compound 0.0999 µM
[41] = second compound 0.1 µM, first compound 0.000999 µM
[42] = second compound 0.1 µM, first compound 0.00316 µM
[43] = second compound 0.1 µM, first compound 0.00999 µM
[44] = second compound 0.1 µM, first compound 0.0999 µM
[45] = second compound 0.316 µM, first compound 0.000999 µM
[46] = second compound 0.316 µM, first compound 0.00316 µM
[47] = second compound 0.316 µM, first compound 0.00999 µM
[48] = second compound 0.316 µM, first compound 0.0999 µM
[49] = second compound 1 µM, first compound 0.000999 µM
[50] = second compound 1 µM, first compound 0.00316 µM
[51] = second compound 1 µM, first compound 0.00999 µM
[52] = second compound 1 µM, first compound 0.0999 µM
[53] = second compound 3.16 µM, first compound 0.000999 µM
[54] = second compound 3.16 µM, first compound 0.00316 µM
[55] = second compound 3.16 µM, first compound 0.00999 µM
[56] = second compound 3.16 µM, first compound 0.0999 µM
[57] = second compound 10 µM, first compound 0.000999 µM
[58] = second compound 10 µM, first compound 0.00316 µM
[59] = second compound 10 µM, first compound 0.00999 µM
[60] = second compound 10 µM, first compound 0.0999 µM
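Note: spheroids exposed to compounds for seven days before reading.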
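Throughout, for viability, T/C: percent viability relative to DMSO vehicle control taken as 100%.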

C=CC(=O)N1CCN(c2nc(=O)n(-c3c(C)ccnc3C(C)C)c3nc(-c4c(O)cccc4F)c(F)cc23)C(C)C1 (stereo not drawn) + Cc1[nH]c2ccc(F)cc2c1-c1nc2c3cccnc3c3ncccc3c2[nH]1
> 7.50: pIC50 (second compound 0.0316 µM) | pIC50 (second compound 0.1 µM) | pIC50 (second compound 0.316 µM) | pIC50 (second compound 1 µM) | pIC50 (second compound 3.16 µM) | pIC50 (second compound 10 µM)
inactive: viability, T/C [1] 43.8% | viability, T/C [2] 32.5% | viability, T/C [3] 25.1% | viability, T/C [4] 28.4% | viability, T/C [5] 29.4% | viability, T/C [6] 28.1% | viability, T/C [7] 41.1% | viability, T/C [8] 33.6% | viability, T/C [9] 24.9% | viability, T/C [10] 26.5% | viability, T/C [11] 29.1% | viability, T/C [12] 31.7% | viability, T/C [13] 44.1% | viability, T/C [14] 29.1% | viability, T/C [15] 24.8% | viability, T/C [16] 24.1% | viability, T/C [17] 30.1% | viability, T/C [18] 29.8% | viability, T/C [19] 38.1% | viability, T/C [20] 30.4% | viability, T/C [21] 26.8% | viability, T/C [22] 25.3% | viability, T/C [23] 28% | viability, T/C [24] 30.9% | viability, T/C [25] 32.6% | viability, T/C [26] 27.4% | viability, T/C [27] 25.8% | viability, T/C [28] 27.5% | viability, T/C [29] 28.8% | viability, T/C [30] 25.7% | viability, T/C [31] 27.2% | viability, T/C [32] 29.6% | viability, T/C [33] 26.3% | viability, T/C [34] 26.3% | viability, T/C [35] 28.1% | viability, T/C [36] 27.9%

CC[C@@]1(O)C(=O)OCc2c1cc1n(c2=O)Cc2cc3c(CN(C)C)c(O)ccc3nc2-1 + Cc1[nH]c2ccc(F)cc2c1-c1nc2c3cccnc3c3ncccc3c2[nH]1
7.19: pIC50 (second compound 0.0316 µM)
6.89: pIC50 (second compound 0.316 µM)
7.28: pIC50 (second compound 10 µM)
7.06: pIC50 (second compound 0.1 µM)
6.99: pIC50 (second compound 1 µM)
7.10: pIC50 (second compound 3.16 µM)
inactive: viability, T/C [37] 92.9% | viability, T/C [38] 95.8% | viability, T/C [39] 92.8% | viability, T/C [1] 56.9% | viability, T/C [40] 46.2% | viability, T/C [3] 45.2% | viability, T/C [41] 104% | viability, T/C [42] 90.8% | viability, T/C [43] 86.2% | viability, T/C [7] 61.7% | viability, T/C [44] 48.8% | viability, T/C [9] 36.8% | viability, T/C [45] 99.8% | viability, T/C [46] 88.4% | viability, T/C [47] 85.5% | viability, T/C [13] 71.7% | viability, T/C [48] 49.2% | viability, T/C [15] 43.4% | viability, T/C [49] 92.7% | viability, T/C [50] 98.5% | viability, T/C [51] 76.2% | viability, T/C [19] 74.5% | viability, T/C [52] 46.4% | viability, T/C [21] 39.8% | viability, T/C [53] 83.7% | viability, T/C [54] 97.3% | viability, T/C [55] 78.4% | viability, T/C [25] 69.2% | viability, T/C [56] 44.4% | viability, T/C [27] 38% | viability, T/C [57] 69.7% | viability, T/C [58] 79.2% | viability, T/C [59] 73.5% | viability, T/C [31] 56.3% | viability, T/C [60] 42.8% | viability, T/C [33] 40.8%

CCc1c2c(nc3ccc(O)cc13)-c1cc3c(c(=O)n1C2)COC(=O)[C@]3(O)CC + Cc1[nH]c2ccc(F)cc2c1-c1nc2c3cccnc3c3ncccc3c2[nH]1
> 9.00: pIC50 (second compound 0.316 µM) | pIC50 (second compound 10 µM)
8.66: pIC50 (second compound 0.1 µM)
inactive: viability, T/C [37] 61.3% | viability, T/C [38] 43.6% | viability, T/C [39] 41.5% | viability, T/C [1] 41.4% | viability, T/C [40] 36.3% | viability, T/C [3] 30.3% | viability, T/C [41] 60% | viability, T/C [42] 44.6% | viability, T/C [43] 38% | viability, T/C [7] 34.3% | viability, T/C [44] 38.7% | viability, T/C [9] 28.1% | viability, T/C [45] 52.8% | viability, T/C [46] 40.8% | viability, T/C [47] 39.5% | viability, T/C [13] 45% | viability, T/C [48] 39.2% | viability, T/C [15] 25.9% | viability, T/C [49] 55.8% | viability, T/C [50] 45.6% | viability, T/C [51] 39.9% | viability, T/C [19] 38% | viability, T/C [52] 38.3% | viability, T/C [21] 31.2% | viability, T/C [53] 54.3% | viability, T/C [54] 40.9% | viability, T/C [55] 36.4% | viability, T/C [25] 35.4% | viability, T/C [56] 37.7% | viability, T/C [27] 31.6% | viability, T/C [57] 48.8% | viability, T/C [58] 41.5% | viability, T/C [59] 44% | viability, T/C [31] 40.7% | viability, T/C [60] 34.2% | viability, T/C [33] 27.7%
8.60: pIC50 (second compound 0.0316 µM)
8.84: pIC50 (second compound 3.16 µM)
8.70: pIC50 (second compound 1 µM)

COc1cc(C2c3cc4c(cc3C(OC3OC5COC(C)OC5C(O)C3O)C3COC(=O)C23)OCO4)cc(OC)c1O (stereo not drawn) + Cc1[nH]c2ccc(F)cc2c1-c1nc2c3cccnc3c3ncccc3c2[nH]1
6.02: pIC50 (second compound 3.16 µM)
5.69: pIC50 (second compound 0.316 µM)
inactive: viability, T/C [1] 108% | viability, T/C [2] 96.3% | viability, T/C [3] 86.6% | viability, T/C [4] 51.3% | viability, T/C [5] 47.8% | viability, T/C [6] 40.2% | viability, T/C [7] 100% | viability, T/C [8] 104% | viability, T/C [9] 68.5% | viability, T/C [10] 52% | viability, T/C [11] 48.6% | viability, T/C [12] 36.6% | viability, T/C [13] 97.7% | viability, T/C [14] 87.9% | viability, T/C [15] 75.2% | viability, T/C [16] 56.8% | viability, T/C [17] 45.5% | viability, T/C [18] 39.8% | viability, T/C [19] 97.1% | viability, T/C [20] 92.2% | viability, T/C [21] 85.8% | viability, T/C [22] 59.7% | viability, T/C [23] 42.5% | viability, T/C [24] 38.5% | viability, T/C [25] 82.8% | viability, T/C [26] 90.3% | viability, T/C [27] 75.5% | viability, T/C [28] 48.6% | viability, T/C [29] 48.5% | viability, T/C [30] 38.5% | viability, T/C [31] 87.8% | viability, T/C [32] 89.2% | viability, T/C [33] 77.4% | viability, T/C [34] 56.5% | viability, T/C [35] 46.5% | viability, T/C [36] 46.8%
5.65: pIC50 (second compound 10 µM)
5.80: pIC50 (second compound 0.0316 µM)
6.08: pIC50 (second compound 0.1 µM)
5.72: pIC50 (second compound 1 µM)
